PubChem BioAssay AID1259411 (Chemical Carcinogenesis Research Information System (CCRIS), 2018)
Active and inactive are the calls of the source. The rule behind the calls is not given here.

System: rodent carcinogenicity bioassays, tumor incidence
Experiment: CCRIS carcinogenicity studies
Conditions: Dose: 0
Method in brief: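 Archive of carcinogenicity, mutagenicity, tumor promotion and tumor inhibition results drawn from journals, NCI reports and other sources, expert-reviewed; covers 1985-2011 and is no longer updated.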

`Cc1cc2c(c3ccc4ccccc4c13)CCC2=O` was tested, and the carcinogen call (Species: MOUSE, Strain/Sex: TO/MALE, FEMALE, Route: DERMAL, 50 UG (10 µL OF A 0.5% W/V TOLUENE SOLUTION) 2/WK FOR 70 WK (STUDY DURATION: 70 WK), Tumor Site: Type of Lesion: SKIN: CARCINOMA) was “active; positive”.
With `Cc1cc(C)c(N)cc1C` the carcinogen call (Species: MOUSE, Strain/Sex: B6C3F1/FEMALE, Route: ORAL, 50, 100 PPM IN DIET FOR 101 WK (STUDY DURATION: 101 WK), 50, 100 PPM IN DIET FOR 101 WK (STUDY DURATION: 101 WK), Tumor Site: Type of Lesion: LIVER: HEPATOCELLULAR CARCINOMA) was “active; positive”, the carcinogen call (Species: MOUSE, Strain/Sex: B6C3F1/MALE, Route: ORAL, 50, 100 PPM IN DIET FOR 101 WK (STUDY DURATION: 101 WK), 50, 100 PPM IN DIET FOR 101 WK (STUDY DURATION: 101 WK), Tumor Site: Type of Lesion: LIVER: HEPATOCELLULAR CARCINOMA) was “equivocal” and the carcinogen call (Species: RAT, Strain/Sex: F344/FEMALE, Route: ORAL, 200, 800 PPM IN DIET FOR 101 WK (STUDY DURATION: 101 WK), 200, 800 PPM IN DIET FOR 101 WK (STUDY DURATION: 101 WK), Tumor Site: Type of Lesion: LUNG: ALVEOLAR/BRONCHIOLAR ADENOMA OR CARCINOMA, LIVER: HEPATOCELLULAR CARCINOMA OR NEOPLASTIC NODULE) was “active; positive”. The carcinogen call (Species: RAT, Strain/Sex: F344/MALE, Route: ORAL, 200, 800 PPM IN DIET FOR 101 WK (STUDY DURATION: 101 WK), 200, 800 PPM IN DIET FOR 101 WK (STUDY DURATION: 101 WK), Tumor Site: Type of Lesion: LIVER: BILE DUCT CARCINOMA, HEPATOCELLULAR CARCINOMA OR NEOPLASTIC NODULE) was “active; positive”.
With `N#CN=C(N)N` the carcinogen call (Species: RAT, Strain/Sex: F344/FEMALE, Route: ORAL, 2.5, 5% IN DIET FOR 104 WK (STUDY DURATION: 113 WK), 2.5, 5% IN DIET FOR 104 WK (STUDY DURATION: 113 WK)) was “inactive; negative” and the carcinogen call (Species: RAT, Strain/Sex: F344/MALE, Route: ORAL, 2.5, 5% IN DIET FOR 104 WK (STUDY DURATION: 113 WK), 2.5, 5% IN DIET FOR 104 WK (STUDY DURATION: 113 WK)) was “inactive; negative”.
For `CN(C)c1ccc(C(=O)c2ccc(N(C)C)cc2)cc1`, the carcinogen call (Species: MOUSE, Strain/Sex: B6C3F1/FEMALE, Route: ORAL, 1250, 2500 PPM IN DIET, 1250, 2500 PPM IN DIET, Tumor Site: Type of Lesion: LIVER: HEPATOCELLULAR ADENOMA OR CARCINOMA) was “active; positive”, the carcinogen call (Species: MOUSE, Strain/Sex: B6C3F1/MALE, Route: ORAL, 1250, 2500 PPM IN DIET, 1250, 2500 PPM IN DIET, Tumor Site: Type of Lesion: INTEGUMENTARY SYSTEM (SUBCUTANEOUS TISSUE): HEMANGIOSARCOMA OR HEMANGIOMA) was “active; positive” and the carcinogen call (Species: RAT, Strain/Sex: F344/FEMALE, Route: ORAL, 500, 1000 PPM IN DIET, 500, 1000 PPM IN DIET, Tumor Site: Type of Lesion: LIVER: HEPATOCELLULAR CARCINOMA OR NEOPLASTIC NODULE) was “active; positive”. The carcinogen call (Species: RAT, Strain/Sex: F344/MALE, Route: ORAL, 250, 500 PPM IN DIET, 250, 500 PPM IN DIET, Tumor Site: Type of Lesion: LIVER: HEPATOCELLULAR CARCINOMA OR NEOPLASTIC NODULE) was “active; positive”.
For `FC(Cl)(Cl)Cl`, the carcinogen call (Species: MOUSE, Strain/Sex: B6C3F1/FEMALE, Route: GAVAGE, 1962, 3925 MG/KG, TWA, 1962, 3925 MG/KG, TWA) was “inactive; negative”, the carcinogen call (Species: MOUSE, Strain/Sex: B6C3F1/MALE, Route: GAVAGE, 1962, 3925 MG/KG, TWA, 1962, 3925 MG/KG, TWA) was “inactive; negative” and the carcinogen call (Species: MOUSE, Strain/Sex: SWISS/FEMALE, Route: INHALATION, 1000, 5000 PPM 4 HR/D 5 D/WK FOR 78 WK (STUDY DURATION: LIFETIME), 1000, 5000 PPM 4 HR/D 5 D/WK FOR 78 WK (STUDY DURATION: LIFETIME)) was “inactive; negative”. For the same compound, the carcinogen call (Species: MOUSE, Strain/Sex: SWISS/MALE, Route: INHALATION, 1000, 5000 PPM 4 HR/D 5 D/WK FOR 78 WK (STUDY DURATION: LIFETIME), 1000, 5000 PPM 4 HR/D 5 D/WK FOR 78 WK (STUDY DURATION: LIFETIME)) was “inactive; negative”, the carcinogen call (Species: RAT, Strain/Sex: SPRAGUE-DAWLEY/FEMALE, Route: INHALATION, 1000, 5000 PPM 4 HR/D 5 D/WK FOR 104 WK (STUDY DURATION: LIFETIME), 1000, 5000 PPM 4 HR/D 5 D/WK FOR 104 WK (STUDY DURATION: LIFETIME)) was “inactive; negative” and the carcinogen call (Species: RAT, Strain/Sex: SPRAGUE-DAWLEY/FEMALE, Route: INHALATION, 1000, 5000 PPM IN AIR 4 HR/D 5 D/WK FOR 104 WK (STUDY DURATION: LIFETIME), 1000, 5000 PPM IN AIR 4 HR/D 5 D/WK FOR 104 WK (STUDY DURATION: LIFETIME), Tumor Site: Type of Lesion: [BRAIN WAS ONLY SITE EVALUATED]) was “inactive; negative”. The carcinogen call (Species: RAT, Strain/Sex: SPRAGUE-DAWLEY/MALE, Route: INHALATION, 1000, 5000 PPM 4 HR/D 5 D/WK FOR 104 WK (STUDY DURATION: LIFETIME), 1000, 5000 PPM 4 HR/D 5 D/WK FOR 104 WK (STUDY DURATION: LIFETIME)) was “inactive; negative” and the carcinogen call (Species: RAT, Strain/Sex: SPRAGUE-DAWLEY/MALE, Route: INHALATION, 1000, 5000 PPM IN AIR 4 HR/D 5 D/WK FOR 104 WK (STUDY DURATION: LIFETIME), 1000, 5000 PPM IN AIR 4 HR/D 5 D/WK FOR 104 WK (STUDY DURATION: LIFETIME), Tumor Site: Type of Lesion: [BRAIN WAS ONLY SITE EVALUATED]) was “inactive; negative”.
In the case of `O=C1C(c2[nH]c3ccc(S(=O)(=O)O)cc3c2O)=Nc2ccc(S(=O)(=O)O)cc21`, the carcinogen call (Species: DOG, Strain/Sex: BEAGLE/MALE, FEMALE, Route: ORAL, 1, 2% IN DIET FOR 2 YR, 1, 2% IN DIET FOR 2 YR) is reported as “inactive; negative”, the carcinogen call (Species: MOUSE, Strain/Sex: C3H AND C57/MALE, FEMALE, Route: SUBCUTANEOUS, 2.5 MG AS A 1% AQUEOUS SOLUTION 1/WK FOR 2 YR) is reported as “inactive; negative” and the carcinogen call (Species: MOUSE, Strain/Sex: CD-1/FEMALE, Route: ORAL, 0.5, 1.5, 5% IN DIET FOR 23 MO (STUDY DURATION: 24 MO), 0.5, 1.5, 5% IN DIET FOR 23 MO (STUDY DURATION: 24 MO)) is reported as “inactive; negative”. For the same compound, the carcinogen call (Species: MOUSE, Strain/Sex: CD-1/MALE, Route: ORAL, 0.5, 1.5, 5% IN DIET FOR 22 MO (STUDY DURATION: 24 MO), 0.5, 1.5, 5% IN DIET FOR 22 MO (STUDY DURATION: 24 MO)) was “inactive; negative”, the carcinogen call (Species: RAT, Strain/Sex: OSBORNE-MENDEL/MALE, FEMALE, Route: ORAL, 0.5, 1.0, 2.0, 5.0% IN DIET FOR 2 YR, 0.5, 1.0, 2.0, 5.0% IN DIET FOR 2 YR) was “inactive; negative” and the carcinogen call (Species: RAT, Strain/Sex: OSBORNE-MENDEL/MALE, FEMALE, Route: SUBCUTANEOUS, 20 MG AS A 2% AQUEOUS SOLUTION 1/WK FOR 2 YR, Tumor Site: Type of Lesion: INJECTION SITE: FIBROSARCOMA) was “active; positive”. The carcinogen call (Species: RAT, Strain/Sex: STRAIN-CD/FEMALE, Route: ORAL, 0.5, 1, 2% IN DIET FOR 30 MO TO ANIMALS ALSO EXPOSED IN UTERO THROUGH THE SAME DOSES ADMINISTERED TO PARENTS BEGINNIN, 0.5, 1, 2% IN DIET FOR 30 MO TO ANIMALS ALSO EXPOSED IN UTERO THROUGH THE SAME DOSES ADMINISTERED TO PARENTS BEGINNIN) was “inactive; negative” and the carcinogen call (Species: RAT, Strain/Sex: STRAIN-CD/MALE, Route: ORAL, 0.5, 1, 2% IN DIET FOR 29 MO TO ANIMALS ALSO EXPOSED IN UTERO THROUGH THE SAME DOSES ADMINISTERED TO PARENTS BEGINNIN, 0.5, 1, 2% IN DIET FOR 29 MO TO ANIMALS ALSO EXPOSED IN UTERO THROUGH THE SAME DOSES ADMINISTERED TO PARENTS BEGINNIN) was “inactive; negative”.
For `c1ccc(Nc2ccc(Nc3ccccc3)cc2)cc1`, the carcinogen call (Species: RAT, Strain/Sex: F344/FEMALE, Route: ORAL, 0.5, 2% IN DIET FOR 104 WK (STUDY DURATION: 112 WK), 0.5, 2% IN DIET FOR 104 WK (STUDY DURATION: 112 WK)) was “inactive; negative” and the carcinogen call (Species: RAT, Strain/Sex: F344/MALE, Route: ORAL, 0.5, 2% IN DIET FOR 104 WK (STUDY DURATION: 112 WK), 0.5, 2% IN DIET FOR 104 WK (STUDY DURATION: 112 WK)) was “inactive; negative”.
